In brackets after ≈: the same amount, converted by molar mass. Where two headings read alike, the source gives them in different places.
Key:
B. subtilis [1] = assay: Minimal growth inhibitory concentration (broth macrodilution), B. subtilis; type: cell-based, Bacillus subtilis; details: Table S1, fluorescent probes
Procedure, shortened: (§1)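 Strains grown in cation-adjusted Mueller–Hinton broth at 37 °C (B. subtilis SU570 at 30 °C) to A600 0.1–0.2, then exposed to compounds or DMSO. MIC by broth macrodilution; division phenotype assessed by microscopy and cell measurement.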

[2] = target: T1, glutaraldehyde-stabilized FtsZ polymers (Bacillus subtilis, UniProt P17865); assay: Stoichiometry of probe binding by polymer pelleting (centrifugation assay)
T1 construct: made in house
Method: The stoichiometry of binding of (R)-5 to stabilized FtsZ polymers was measured using a centrifugation assay adapted from ref ([49]). Then, FtsZ polymers (10 μM) were incubated at 25 °C in HEPES buffer, 10 mM MgCl2, 2% DMSO, and 0.1 mM GMPCPP at 25 °C in the presence of different probe concentrations, in a final volume of 0.1 mL. The samples were then centrifuged for 20 min at 100 000 rpm and 25 °C in a TLA-100 rotor. After centrifugation, the supernatant was carefully withdrawn and the pellets were resuspended in the same volume of buffer. The concentration of the free probe was determined spectrophotometrically in the supernatant, employing an extinction coefficient ε483 = 25 400 M^–1 cm^–1 for (R)-5 and the concentration of probe bound to FtsZ was calculated as the difference of the known total concentration of probe minus the free concentration. To calculate the FtsZ polymer concentration, 5 μL of the resuspended pellet was applied to sodium dodecyl sulfate (SDS)-12% polyacrylamide gels, stained with Coomassie blue, scanned with a CS-800 calibrated densitometer (BioRad), and the protein bands quantified using Quantity One software (BioRad).

[3] = target: T2, FtsZ-GMPCPP polymers (BsFtsZ) (Bacillus subtilis, UniProt P17865); assay: Binding titration of the fluorescent probes to FtsZ polymers by fluorescence anisotropy
T2 construct: made in house
Method: (§2) FtsZ from B. subtilis (BsFtsZ) was prepared as described previously.[35] FtsZ was assembled in 50 mM N-(2-hydroxyethyl)piperazine-N′-ethanesulfonic acid (HEPES)-KOH, 50 mM KCl, 1 mM ethylenediaminetetraacetic acid (EDTA), pH 6.8 (HEPES buffer) plus 10 mM MgCl2, and 1 mM GTP or 0.1 mM GMPCPP at 25 °C. FtsZ assembly was monitored by light scattering.[34]
The fluorescence spectra and anisotropy values of the different probes were acquired with a Fluoromax-4 (Horiba Jobin Yvon) photon-counting L-format spectrofluorometer using 2 mm × 10 mm cells at 25 °C, employing the maximum excitation and emission wavelength for each probe with 2 and 5 nm bandwidths, respectively. Anisotropy values were automatically measured as r = (Ivv – G Ivh)/(Ivv + 2G Ivh), where the subscripts refer to the vertical (v) or horizontal (h) positions of the excitation (first subscript) and emission (second subscript) polarizers, and G = Ihv/Ihh. Total intensity values were simultaneously determined as IT = Ivv +2G Ivh. Note that measurement correction procedures with T-format (double channel) fluorometers and with plate readers are slightly different.
FtsZ (10–15 μM) was assembled in HEPES buffer, 10 mM MgCl2, 50 μM GMPCPP at 25 °C for 10 min, and then 0.15% (v/v) glutaraldehyde[36] (distilled grade for microscopy, TAAB Laboratories, U.K.) was added to the solution that was incubated at 25 °C for 10 min more. (This was the minimal glutaraldehyde concentration determined to stabilize FtsZ polymers specifically binding probe 1.) The remains of the cross-linking agent were quenched by adding 60 mM NaBH4, the sample was incubated on ice for 10 min and degassed.[36] Cross-linked polymers were centrifuged for 10 min at 8200g (5000 rpm) and 4 °C in 15 mL Falcon tubes employing a Rotina 380R (Hettich) centrifuge, the supernatant was removed and the pellet was resuspended in the same volume of HEPES buffer, 10 mM MgCl2, containing 5 μM GMPCPP. Fixed FtsZ polymers were active in binding assays after more than 2 days at 4 °C; they could also be frozen in liquid nitrogen with a small loss of binding capacity. […] Cross-linked polymers of SaFtsZ were similarly prepared.
Binding affinity of the probes to FtsZ was measured by an increase in anisotropy of the probe (adapted from ref ([49])). Fixed concentrations of the probes (3 μM) were titrated with different FtsZ polymer concentrations (0–40 μM) in HEPES buffer with Mg^2+, to obtain the anisotropy increment, Δrmax, corresponding to the bound probe. The increase in anisotropy was plotted against the FtsZ polymer concentration (calculated by subtracting from the total protein concentration the critical concentration for polymerization under the same conditions) and iteratively least-squares fitted with an isotherm of binding to one site. The estimated values of Δrmax were used to approximate the free FtsZ concentrations, and these new values were employed again until an unchanging Δrmax value was obtained. The convergent data were used to calculate the binding constant of the fluorescent probe to FtsZ polymers (Table S1).

S. aureus Mu50 = assay: Minimal growth inhibitory concentration (broth macrodilution), S. aureus Mu50; type: cell-based, Staphylococcus aureus
Procedure, shortened: as §1

BsFtsZ = target: T3, BsFtsZ (Bacillus subtilis, UniProt P17865); assay: Fluorescence anisotropy of probes after consecutive additions of FtsZ, GMPCPP, MgCl2 and PC190723; type: binding; details: for Fluorescence anisotropy (r): free probe: probe 10 μM in buffer; for Fluorescence anisotropy (r): + FtsZ (unassbld.) / Fluorescence anisotropy (r): + GMPCPP / Fluorescence anisotropy (r): + MgCl2 (polymer): probe 10 μM, FtsZ 10 μM; for Fluorescence anisotropy (r): + GMPCPP / Fluorescence anisotropy (r): + MgCl2 (polymer): GMPCPP 0.1 mM; for Fluorescence anisotropy (r): + MgCl2 (polymer): MgCl2 10 mM, 5–10 min
T3 construct: made in house
Method: (A) Fluorescence anisotropy values of the free probes (10 μM) in buffer, to which FtsZ (10 μM, unassembled) was added, followed by the slowly hydrolyzable GTP analogue GMPCPP (0.1 mM). BsFtsZ polymerization was then induced by the addition of MgCl2 (10 mM) and anisotropy values were recorded 5–10 min later. Nonfluorescent PC190723 (10 μM) was subsequently added to displace the fluorescent probe and anisotropy was measured 5 min later. (B) Fluorescence microscopy images of B. subtilis cells treated for 1.5 h with the minimal division inhibitory concentrations (MDC) of (S)-2 and each enantiomer of 5 (Table S1), acquired employing the probe fluorescence.
as §2

B. subtilis [4] = test system: B. subtilis; parameters: method as in earlier work; details: Table S1; ref 1 (Artola et al., Chem. Sci. 2017); cited from earlier work
[5] = FtsZ-GMPCPP polymers, best fit values from binding titrations
[6] = binding to stabilized FtsZ polymers

T2 sequence (P17865 whole entry): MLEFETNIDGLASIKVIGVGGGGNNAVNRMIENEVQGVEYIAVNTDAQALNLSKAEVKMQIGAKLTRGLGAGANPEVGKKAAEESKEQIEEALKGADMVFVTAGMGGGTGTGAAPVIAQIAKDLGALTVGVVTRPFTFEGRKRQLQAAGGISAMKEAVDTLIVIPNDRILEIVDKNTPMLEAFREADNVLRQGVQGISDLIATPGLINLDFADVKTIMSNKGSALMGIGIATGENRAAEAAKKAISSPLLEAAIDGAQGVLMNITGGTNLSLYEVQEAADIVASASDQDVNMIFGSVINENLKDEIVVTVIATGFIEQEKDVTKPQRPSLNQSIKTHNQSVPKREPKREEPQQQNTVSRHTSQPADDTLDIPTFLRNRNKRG
T3 sequence (P17865 whole entry): as above
T1 sequence (P17865 whole entry): as above

SMILES	MIC B. subtilis (B. subtilis [1])	stoichiometry of probe binding [2]	Imax/Imin [3, 5]	rmax (all probe bound) [3, 5]	rmin (free probe) [3, 5]	Kd [3, 5]	Kd [3, 6]	Imax/Imin [3, 6]	rmax (all probe bound) [3, 6]	rmin (free probe) [3, 6]	effect on growth of S. aureus Mu50, in words (S. aureus Mu50; 250 µM)	MIC S. aureus Mu50 (S. aureus Mu50; Table S1, fluorescent probes)	Fluorescence anisotropy (r): + PC190723 (BsFtsZ; data from Fig. 5A)	Fluorescence anisotropy (r): free probe (BsFtsZ)	Fluorescence anisotropy (r): + FtsZ (unassbld.) (BsFtsZ)	Fluorescence anisotropy (r): + GMPCPP (BsFtsZ)	Fluorescence anisotropy (r): + MgCl2 (polymer) (BsFtsZ)	Fluorescence anisotropy (r): + PC190723 (BsFtsZ; PC190723 10 μM added to the polymer, 5 min)	MIC B. subtilis (B. subtilis [4])
CCC[C@H](COc1ccc(F)c(C(N)=O)c1F)Nc1ccc([N+](=O)[O-])c2nonc12 [(R)-5]	25 µM (≈ 10.5 µg/mL)	0.6 molecules per FtsZ monomer	6.2	0.272	0.029	1.9 ± 0.6 µM	2 ± 0.5 µM	5.0	0.268	0.029	partially inhibited growth	> 250 µM	0.052	0.029	0.041	0.040	0.227	–	–
NC(=O)c1c(F)ccc(OCCNc2ccc([N+](=O)[O-])c3nonc23)c1F [Compound 1, reference compound]	–	–	1.0	0.213	0.024	26 ± 3 µM	17 ± 1 µM	1.0	0.26	0.024	–	–	–	0.022	0.027	0.026	0.080	0.029	800 µM (≈ 303 µg/mL)

Reference: paper PMC8478281, “Targeting the FtsZ Allosteric Binding Site with a Novel Fluorescence Polarization Screen, Cytological and Structural Approaches for Antibacterial Discovery” (Journal of Medicinal Chemistry, 2021)
